Results reported in US9174996B2, “Protein kinase inhibitors” (Astar Biotech LLC, priority 2012, dated 2015).
Where two headings read alike, the source gives them in different places.

Experiments:
[1] = tested on: K562 cells; assay: Cell death assay, Experiment 2 (IC50, live cells counted by trypan blue); format: cell-based; details: Homo sapiens, 48 h
Procedure: K562 cells (2×10^5 cells/ml) were seeded in 24-well cell culture plate and treated with DMSO or agents. After treatment in the presence of DMSO or agents for 48 h, cells were collected by centrifuging at 500 g for 5 minutes, and then cells were resuspended in appropriate volume of PBS. 10 uL of cell suspension was mixed with 10 uL of trypan blue solution and live cells were counted by TC10 (Bio-Rad, Richmond, Calif.).

[2] = tested on: U937; assay: MTT cell viability assay, Experiment 3; format: cell-based; details: Homo sapiens
From the text: (§1) This study evaluated the effect of the pure optical isomers on human leukemia cell viability in vitro. Ponatinib was used as the positive control. Two BCR-ABL-positive human leukemia cell lines, K562 and KU812, were used in this study. Besides, Ba/F3 cell transfectants expressing native or T315I BCR-ABL, whose viability is dependent on ectopically expressed BCR-ABL, were also used in this work. Ba/F3 cells expressing BCR-ABL^T315I were used for testing the efficiency of tested compounds on point mutation BCR-ABL^T315I, which cause drug resistance to Imatinib (Gleevec). U937 and JURKAT, two BCR-ABL-negative human leukemia cell lines, were employed to test the selectivity of tested compounds.
(§2) Cells were seeded in 24-well plates, and treated with drugs at corresponding concentrations. Cell viability was measured using a MTT (3-(4,5-dimethylthiazol-2-yl)-2,5-diphenyltetrazolium bromide)-based colorimetric assay with a 96-well plate reader. IC50 values were calculated using the mean of two independent experiments.

[3] = tested on: JURKAT; assay: MTT cell viability assay, Experiment 3; format: cell-based; details: Homo sapiens, read-out: IC50 cell viability, Non-CML leukemia cells JURKAT
From the text: as §1, §2

[4] = tested on: K562; assay: MTT cell viability assay, Experiment 3; format: cell-based; details: Homo sapiens
From the text: as §1, §2

[5] = tested on: KU812; assay: MTT cell viability assay, Experiment 3; format: cell-based; details: Homo sapiens
From the text: as §1, §2

[6] = tested on: K562 cells; assay: Cell death assay, Experiment 1 (live cells counted by trypan blue); format: cell-based; details: Homo sapiens, 100 nM, 48 hours, read-out: % live cells (vs control)
[7] = molecular target: Ba/F3 cells expressing native BCR-ABL (Homo sapiens, UniProt P00519); assay: MTT cell viability assay, Experiment 3; format: cell-based, murine; details: Mean ± S.E.M, two independent experiments, read-out: IC50 cell viability, Ba/F3 cells Native BCR-ABL
From the text: as §1, with “Ponatinib was used as the positive control.” left out
as §2

[8] = molecular target: Ba/F3 cells expressing BCR-ABL T315I (Homo sapiens, UniProt P00519, T315I, cells depend on it); assay: MTT cell viability assay, Experiment 3; format: cell-based, murine; details: Mean ± S.E.M, two independent experiments, read-out: IC50 cell viability, Ba/F3 cells T315I BCR-ABL
From the text: as §1, with “Ponatinib was used as the positive control.” left out
as §2

[9] = tested on: Ba/F3 harboring the T315I mutant isoform of BCR-ABL; assay: BaF3/BCR-ABL T315I mouse xenograft model, Experiment 4; format: in vivo; details: oral, 14 days, NOD SCID mice
Procedure: The murine pro-B cell line Ba/F3 harboring the T315I mutant isoform of BCR-ABL was subcutaneously injected into NOD SCID mice (NOD.CB17-Prkdc^scid/J). […] The tumor volumes in two dimensions and the body weights of the mice were measured three times a week (volume=L×W^2×0.5).

[10] = U-937, MTT, Mean ± S.E.M, two independent experiments, read-out: IC50 cell viability, Non-CML leukemia cells U937
[11] = MTT, Mean ± S.E.M, two independent experiments
[12] = K562, MTT, Mean ± S.E.M, two independent experiments, read-out: IC50 cell viability, CML leukemia cells K562
[13] = KU812, MTT, Mean ± S.E.M, two independent experiments, read-out: IC50 cell viability, CML leukemia cells KU812

For Cc1ccc(C(=O)Nc2ccc3c(c2)C(F)(F)CC3N2CCN(C)CC2)cc1C#Cc1cnc2cccnn12 (racemic) [Compound 36, N-(1,1-difluoro-2,3-dihydro-3-(4-methylpiperazin-1-yl)-1H-indan-6-yl)-3-(2-(imidazo[1,2-b]pyridazin-3-yl)ethynyl)-4-methylbenzamide], the IC50 [1] was 0.87 nM, the IC50 [2, 10] was 608 ± 42.2 nM and the IC50 [3, 11] was 672 ± 77.6 nM. It also gave an IC50 [4, 12] of 0.5 ± 0.1 nM, an IC50 [5, 13] of 0.2 ± 0.1 nM and a viability at 0.1 µM [6] of 9.48%. The GI50 [7] was 2.7 ± 0.2 nM and the GI50 [8] was 11 ± 0.2 nM.

With Cc1ccc(C(=O)Nc2ccc3c(c2)C(F)(F)CC3N2CCN(C)CC2)cc1C#Cc1cnc(NC2CC2)nc1 (racemic) [Compound 37, 3-(2-(2-(Cyclopropylamino)pyrimidin-5-yl)ethynyl)-N-(1,1-difluoro-2,3-dihydro-3-(4-methylpiperazin-1-yl)-1H-indan-6-yl)-4-methylbenzamide] the IC50 [1] was 3.4 nM, the IC50 [2, 10] was 191 ± 3.3 nM and the IC50 [3, 11] was 292 ± 8 nM. For the same compound, the IC50 [4, 12] was 1 ± 0.2 nM, the IC50 [5, 13] was 0.4 ± 0.1 nM and the viability at 0.1 µM [6] was 4.32%. It also gave a melting point of 95 to 97 °C, a GI50 [7] of 9.3 ± 2.5 nM and a GI50 [8] of 40 ± 9.6 nM.

For CN1CCN([C@H]2CC(F)(F)c3cc(NC(=O)c4ccc(Cl)c(C#Cc5cnc6cccnn56)c4)ccc32)CC1 (single isomer, unassigned) [Compound 38-(S)], the “TGI (Tumor growth inhibition)” value ([9]; 5 mg/kg/day) was 81%, the IC50 [2, 10] was > 1000 nM and the IC50 [3, 11] was > 1000 nM. It also gave an IC50 [4, 12] of 0.6 ± 0.1 nM, an IC50 [5, 13] of 0.2 ± 0.1 nM and a GI50 [7] of 2.2 ± 0.3 nM. For the same compound, the GI50 [8] was 3.8 ± 0.2 nM.

Cc1ccc(-c2nc3ccc(CN4CCN(C)CC4)cc3[nH]2)cc1C#Cc1cnc2cccnn12 [Compound 3, 3-(2-(2-Methyl-5-(6-((4-methylpiperazin-1-yl)methyl)-1H-benzo[d]imidazol-2-yl)phenyl)ethynyl)imidazo[1,2-b]pyridazine] showed an IC50 [1] of 3 nM, a viability at 0.1 µM [6] of 11.3% and a melting point of 114 to 115 °C.

In the case of Cc1ccc(C(=O)Nc2ccc(CN3CCN(C)CC3)c(C(F)(F)F)c2)cc1C#Cc1ccc(NC2CC2)nn1 [Compound 12, 3-(2-(6-(Cyclopropylamino)pyridazin-3-yl)ethynyl)-4-methyl-N-(4-((4-methylpiperazin-1-yl)methyl)-3-(trifluoromethyl)phenyl)benzamide], the IC50 [1] is reported as 4 nM, the viability at 0.1 µM [6] is reported as 10.1% and the melting point is reported as 68 to 69 °C.

In the case of Cc1ccc(C(=O)Nc2ccc(CN3CCN(C)CC3)c(C(F)(F)F)c2)cc1C#Cc1ccc(NC2CCC2)nn1 [Compound 13, 3-(2-(6-(Cyclobutylamino)pyridazin-3-yl)ethynyl)-4-methyl-N-(4-((4-methylpiperazin-1-yl)methyl)-3-(trifluoromethyl)phenyl)benzamide], the IC50 [1] is reported as 11 nM, the viability at 0.1 µM [6] is reported as 8.9% and the melting point is reported as 120 to 121 °C.

Compound Cc1cn(-c2cc(NC(=O)c3ccc(C)c(C#Cc4ccc(NC5CC5)nn4)c3)cc(C(F)(F)F)c2)cn1 [Compound 23, 3-(2-(6-(Cyclopropylamino)pyridazin-3-yl)ethynyl)-4-methyl-N-(3-(4-methyl-1H-imidazol-1-yl)-5-(trifluoromethyl)phenyl)benzamide] has an IC50 [1] of 16 nM, a viability at 0.1 µM [6] of 8.6% and a melting point of 226 to 228 °C.

Compound Cc1cn(-c2ccc(NC(=O)c3ccc(C)c(C#Cc4cnc5cccnn45)c3)cc2C(F)(F)F)cn1 [Compound 30, 3-(2-(Imidazo[1,2-b]pyridazin-3-yl)ethynyl)-4-methyl-N-(4-(4-methyl-1H-imidazol-1-yl)-3-(trifluoromethyl)-phenyl)benzamide] has an IC50 [1] of 3.6 nM, a viability at 0.1 µM [6] of 12.6% and a melting point of 124 to 126 °C.

With Cc1ccc(C(=O)Nc2ccc3c(c2)C(F)(F)C[C@@H]3N2CCN(C)CC2)cc1C#Cc1cnc2cccnn12 [Compound 36-(S), (S)-N-(1,1-difluoro-2,3-dihydro-3-(4-methylpiperazin-1-yl)-1H-indan-6-yl)-3-(2-(imidazo[1,2-b]pyridazin-3-yl)ethynyl)-4-methylbenzamide] the “TGI (Tumor growth inhibition)” value ([9]; 10 mg/kg/day) was 105%, the “TGI (Tumor growth inhibition)” value ([9]; 20 mg/kg/day) was 108% and the IC50 [2, 10] was 868 ± 88.7 nM. The IC50 [3, 11] was 851 ± 25.7 nM, the IC50 [4, 12] was 0.4 ± 0.1 nM and the IC50 [5, 13] was 0.1 ± 0.1 nM. For the same compound, the GI50 [7] was 2.1 ± 0.2 nM and the GI50 [8] was 4.7 ± 1.3 nM.

In the case of Cc1ccc(C(=O)Nc2ccc(CN3CCN(C)CC3)c(C(F)(F)F)c2)cc1C#Cc1cnc2cccnn12 [Ponatinib, reference compound], the “TGI (Tumor growth inhibition)” value ([9]; 10 mg/kg/day) is reported as 75%, the “TGI (Tumor growth inhibition)” value ([9]; 20 mg/kg/day) is reported as 94% and the IC50 ([2]; U-937, read-out: IC50 cell viability, Non-CML leukemia cells U937) is reported as 246 ± 12.5 nM. The IC50 [3] was 295 ± 5 nM, the IC50 ([4]; K562, read-out: IC50 cell viability, CML leukemia cells K562) was 0.3 ± 0.1 nM and the IC50 ([5]; KU812, read-out: IC50 cell viability, CML leukemia cells KU812) was 0.1 ± 0.1 nM.
